Where two headings read alike, the source gives them in different places.
Tests used:
human GnRHr = human GnRHr (Homo sapiens (Human), UniProt P30968); assay: Human GnRHr (GnRH receptor) activity assay, Fluo-4 calcium signal in Human GnRHr/CHO stably transfected cell lines; format: cell-based; conditions: Human GnRHr/CHO cells, GnRH polypeptide stimulant
Method: Test Example 1. Human GnRHr (GnRH Receptor) Activity Assay of the Present Compounds.
In vitro GnRHr protein activity was tested by the following methods.
This assay was used to determine the inhibition effect of the present compound on the activity of human GnRHr protein expressed by Human GnRHr/CHO stably transfected cell lines.
A mammalian expression vector containing the human GnRHr gene was transferred into CHO cells by adding Lipofectamine® LTX reagent containing Plus™. Antibiotics were added the next day for screening to pick out the monoclonal cell lines.
(§1) The Human GnRHr/CHO stably transfected cell lines were inoculated in 96-well plates with an inoculation density of 25,000 cells/well. The culture medium was removed the next day, and loading buffer containing Fluo-4 dye was added to the plate (100 μL/well) and incubated for 30 minutes at 37° C. The plate was moved to room temperature and equilibrated for 10 minutes. Each compound was diluted with DMSO to seven concentration gradients of 100 μM, 10 μM, 1 μM, 0.1 μM, 0.01 μM, 0.001 μM, 0.0001 μM. Then, 1 μl of each gradient was added to each well and incubated for 10 minutes at room temperature. After automated addition of 50 μL of GnRH polypeptide stimulant solution, the value was immediately detected at 494/516 nM by a microplate reader (flexstation 3). IC50 values of the compounds were calculated by software from different fluorescence signals at various corresponding concentrations.
The inhibitory activity of the present compounds on human GnRHr was determined by the above assay, and IC50 values are shown in Table 1.

rabbit GnRHr = rabbit GnRHr (Oryctolagus cuniculus, UniProt Q5U7L3); assay: Rabbit GnRHr inhibitory activity assay, rabbit GnRHr/CHO stably transfected cell lines; format: cell-based; conditions: rabbit GnRHr/CHO cells, GnRH polypeptide stimulant, Fluo-4
rabbit GnRHr, sequence (Q5U7L3 1-328): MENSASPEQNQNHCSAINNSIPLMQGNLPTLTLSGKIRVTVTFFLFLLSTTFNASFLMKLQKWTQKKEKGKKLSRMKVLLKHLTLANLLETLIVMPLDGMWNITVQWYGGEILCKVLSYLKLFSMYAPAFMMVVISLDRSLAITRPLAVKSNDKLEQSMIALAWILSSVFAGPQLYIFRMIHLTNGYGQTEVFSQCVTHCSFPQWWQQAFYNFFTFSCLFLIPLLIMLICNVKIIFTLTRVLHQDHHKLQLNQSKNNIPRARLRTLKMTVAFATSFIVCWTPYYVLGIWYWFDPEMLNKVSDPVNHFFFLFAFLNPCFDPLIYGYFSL
Method: Test Example 3. Rabbit GnRHr Inhibitory Activity Assay of the Present Compounds
This assay was used to determine the inhibition effect of the present compounds on the activity of rabbit GnRHr protein expressed by rabbit GnRHr/CHO stably transfected cell lines.
A mammalian expression vector containing the rabbit GnRHr gene was transferred into CHO cells by adding Lipofectamine® LTX reagent containing Plus™. Antibiotics were added the next day for screening to pick out the monoclonal cell lines.
as §1, with “rabbit” for “Human”, “494/516n M” for “494/516 nM”
The inhibitory activity of the present compounds on rabbit GnRHr was determined by the above assay, and IC50 values are shown in Table 1.

[1] = Rabbit pharmacokinetics assay; format: in vivo, New Zealand rabbits; conditions: for AUC: read-out: Area under curve AUC; for half-life: read-out: Half-life T1/2 (converted); for MRT: read-out: Residence time MRT
Method: Test Example 5. Rabbit Pharmacokinetics Assay of Example 11 of the Present Invention
Rabbits were used as test animals. The plasma concentrations at various times were determined by LC/MS/MS after intragastric administration of the compound of Example 11, and intravenous administration of the compound of Example 11 to rabbits. The pharmacokinetic behavior of the present compound in rabbits was studied, and the pharmacokinetic features were evaluated.
Six (6) healthy New Zealand Rabbits (female) were evenly designated into 2 groups. The animals were purchased from Jie Sijie Corp. Ltd.
An appropriate amount of sample was weighed, and added with 0.5% CMC-Na to form […] suspension upon ultrasonic treatment.
Appropriate amounts of drugs were weighed, and dissolved with 1 ml DMSO and 1 ml of Tween 80. Saline solution was added to the final volume.
Six (6) healthy New Zealand rabbits (female) were evenly designated into 2 groups, and administered by oral gavage or intravenous injection (i.v.) (oral gavage at a dosage of 30 mg/kg with an administration volume of 5 ml/kg, and i.v. at a dosage of 5 mg/kg with an administration volume of 2 ml/kg) after fasting overnight.
0.2 ml of blood was sampled before and 5 minutes, 0.25, 0.5, 1, 2, 4, 8, 11, 24 hours after intravenous administration, collected in a heparinized test tube, and centrifuged at 3500 rpm for 10 minutes to separate the plasma, which was stored at −20° C. Blood was sampled before, and 0.5, 1, 2, 4, 6, 8, 11, and 24 hours after oral administration, and treated the same as that of the intravenous administration group. The content of the test compound in the plasma of rabbits after administration of the compound by oral gavage and intravenous injection was determined by LC/MS/MS.

[2] = female, New Zealand, plasma, intravenous injection 5 mg/kg
[3] = female, New Zealand, plasma, oral 30 mg/kg

human GnRHr, sequence (P30968 whole entry): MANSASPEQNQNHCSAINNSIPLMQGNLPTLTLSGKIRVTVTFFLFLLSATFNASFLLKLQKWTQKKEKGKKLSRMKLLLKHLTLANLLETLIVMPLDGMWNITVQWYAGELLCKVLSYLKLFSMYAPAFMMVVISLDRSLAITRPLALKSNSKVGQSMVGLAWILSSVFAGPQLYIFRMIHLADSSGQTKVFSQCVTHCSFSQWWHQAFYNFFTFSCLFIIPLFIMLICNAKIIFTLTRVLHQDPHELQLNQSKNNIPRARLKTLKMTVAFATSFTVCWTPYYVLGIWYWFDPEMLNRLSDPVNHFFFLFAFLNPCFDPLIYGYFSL

Compound: CONC(=O)Nc1ccc(-n2nc3c(c2CN(C)C)c(=O)n(-c2ccc(OC)nn2)c(=O)n3Cc2c(F)cccc2F)cc1 [Example 11, 1-(4-(7-(2,6-difluorobenzyl)-3-((dimethylamino)methyl)-5-(6-methoxypyridazin-3-yl)-4,6-dioxo-4,5,6,7-tetrahydro-2H-pyrazolo[3,4-d]pyrimidin-2-yl)phenyl)-3-methoxyurea]
- IC50 (human GnRHr): 4.95 nM
- IC50 (rabbit GnRHr): 0.57 nM
- AUC [1, 2]: 3410 ± 832 ng·h/mL
- half-life [1, 2]: 4.6 ± 2.7 h
- MRT [1, 2]: 2.39 ± 0.3 h
- Vd/F ([1]; female, New Zealand, plasma, oral 30 mg/kg, read-out: Apparent volume of distribution Vz/F): 10.7 ± 3.86 L/kg
- AUC [1, 3]: 19000 ± 2310 ng·h/mL
- CL/F ([1]; female, New Zealand, plasma, oral 30 mg/kg, read-out: Clearance rate CL/F): 26.6 ± 3.4 mL/min/kg
- half-life [1, 3]: 4.57 ± 1.06 h
- Cmax ([1]; female, New Zealand, plasma, oral 30 mg/kg, read-out: Plasma concentration Cmax): 5040 ± 776 ng/mL
- MRT [1, 3]: 3.94 ± 0.55 h
- Apparent volume of distribution Vz/F ([1]; intravenous injection 5 mg/kg): 10.948 ± 7.749 L/kg
- Clearance rate CL/F ([1]; intravenous injection 5 mg/kg): 25.3 ± 5.5 mL/min/kg
